Experimental data published in patent US20240344145A1, “PHARMACOGENOMICS SCORE TO MAKE DECISIONS ON THERAPY AUGMENTATION IN AML” (University of Florida Research Foundation, Incorporated, priority 2021, published 2024).

System: ara-C metabolic pathway genes
Assay: Association of ara-C pathway SNP genotypes with MRD1, EFS and OS in AML02 (logistic regression and Cox models; also within LDAC and HDAC arms)
Design: species or system human
Settings: within arm of AML02
Description: Genomic DNA from patients enrolled in the multi-site St. Jude AML02 trial was genotyped for 155 SNPs in 16 genes of relevance to ara-C pharmacology using sequenom iPlex platform that uses MALDI-TOF based chemistry at University of Minnesota, Biomedical Genomics Center. SNPs were selected based on previously reported studies. For SNPs lacking literature on genetic variation, SNPs were selected to capture LD blocks (European and African ancestry) on a gene. Of 155 SNPs, 1 SNP was excluded due to low call rate (<90%), 47 SNPs were excluded due to minimum allele frequency of less than 5%, 11 SNPs were excluded due to high LD (r^2>0.9) with other SNPs; two SNPs were excluded because of deviation from Hardy-Weinberg equilibrium. Genotype for the COG-AAML0531 cohort for the selected SNPs was obtained using sequenom platform or TaqMan genotyping assays, and for a few SNPs was extracted from the data available on Illumina 2.5 Omni array. Genotype calls from multiple platforms were confirmed across multiple samples randomly collected from the cohort.
SNP genotype groups in three different modes of inheritance (additive, dominant, and recessive) were tested for association with MRD1 using logistic regression models. Odds ratio (OR) and 95% confidence interval (CI) were calculated for each test. SNPs with association P-value<0.05 were considered significant. Cox-proportional hazard models were used to evaluate association of genotype groups with EFS or OS. Hazard ratio (HR) and 95% CI were calculated for each test. p-value<0.05 was considered statistically significant. Given initial risk group assignments are well-established prognostic factors associated with outcome, outcome association analysis of SNPs with and without adjusting for risk group was also performed to identify SNPs that are associated with outcome independent of risk group.
SNPs with p<0.15 in risk-adjusted univariate evaluation with clinical endpoints (MRD1, EFS, and OS) were tested for all possible combinations with a maximum of three SNPs per model in multivariable logistic regression models for association with MRD1 and Cox-proportional hazard models for association with EFS and OS. Analysis for up to 3 SNP combinations was restricted due to computational challenges as increasing the maximum number of SNPs per model drastically increases the number of models as 1000 permutations were run for each model. Models were ordered according to their Bayesian Information Criterion (BIC) and weight in favor of each model. One thousand permutation tests were performed for each model to determine statistical significance. The six unique SNPs from the most significant models for EFS and MRD1 were included in the development of the ACS10 score as described in the results section.
The multicenter AML02 clinical trial randomly assigned subjects to receive low dose ara-C (LDAC: 100 mg/m^2; n=91 patients) or high dose ara-C(HDAC: 3 g/m^2; n=75 patients) in combination with daunorubicin and etoposide as the first course of chemotherapy as described above in patient cohort section. Thus, the association of SNPs with outcome within each arm separately was also explored (Table 5).

[1] = rs4742 (DCTD, WT T, VAR C), MOI R
[2] = rs5841 (NME4, WT C, VAR T), MOI D
[3] = rs324148 (SLC29A1, WT C, VAR T), MOI A
[4] = rs407983 (NME4, WT G, VAR C), MOI A
[5] = rs507964 (SLC29A1, WT C, VAR A), MOI R
[6] = rs580032 (CDA, WT T, VAR G), MOI D
[7] = rs602950 (CDA, WT T, VAR C), MOI A
[8] = rs747199 (SLC29A1, WT C, VAR G), MOI D
[9] = rs818196 (CDA, WT G, VAR C), MOI D
[10] = rs1048977 (CDA, WT C, VAR T), MOI D
[11] = rs1138729 (RRM2, WT A, VAR G), MOI D
[12] = rs2072671 (CDA, WT A, VAR C), MOI A
[13] = rs2396243 (SLC29A1, WT G, VAR A), MOI D
[14] = rs3088062 (CMPK1, WT T, VAR C), MOI A
[15] = rs3743162 (SLC28A1, WT C, VAR T), MOI D
[16] = rs3829540 (NME3, WT G, VAR A), MOI D
[17] = rs3925058 (CMPK1, WT T, VAR C), MOI D
[18] = rs4247411 (SLC28A1, WT C, VAR T), MOI D
[19] = rs4271567 (SLC28A1, WT T, VAR A), MOI R
[20] = rs4643786 (DCK, WT T, VAR C), MOI R

## Nc1ccn([C@@H]2O[C@H](CO)[C@@H](O)[C@@H]2O)c(=O)n1 [HDAC, cytarabine]
[1]
  EFS HR (95% CI): 1.53 (0.98-2.4)
  MRD1 OR (95% CI): 1.08 (0.49-2.38)
  OS HR (95% CI): 1.49 (0.91-2.46)
[2]
  EFS HR (95% CI): 0.86 (0.6-1.23)
  MRD1 OR (95% CI): 0.48 (0.28-0.81)
  OS HR (95% CI): 1.15 (0.74-1.81)
[3]
  EFS HR (95% CI): 0.88 (0.52-1.5)
  MRD1 OR (95% CI): 1.08 (0.55-2.1)
  OS HR (95% CI): 0.75 (0.39-1.46)
[4]
  EFS HR (95% CI): 1.1 (0.7-1.72)
  MRD1 OR (95% CI): 1.43 (0.76-2.67)
  OS HR (95% CI): 1.05 (0.62-1.8)
[5]
  EFS HR (95% CI): 1.71 (1.12-2.62)
  MRD1 OR (95% CI): 1.01 (0.51-2.01)
  OS HR (95% CI): 1.37 (0.8-2.36)
[6]
  EFS HR (95% CI): 0.45 (0.22-0.92)
  MRD1 OR (95% CI): 0.91 (0.49-1.66)
  OS HR (95% CI): 0.58 (0.28-1.19)
[7]
  EFS HR (95% CI): 1.25 (0.74-2.09)
  MRD1 OR (95% CI): 0.69 (0.32-1.48)
  OS HR (95% CI): 0.86 (0.44-1.69)
[8]
  EFS HR (95% CI): 0.97 (0.66-1.42)
  MRD1 OR (95% CI): 1.37 (0.82-2.29)
  OS HR (95% CI): 1.1 (0.72-1.71)
[9]
  EFS HR (95% CI): 0.66 (0.45-0.98)
  MRD1 OR (95% CI): 0.9 (0.56-1.47)
  OS HR (95% CI): 0.73 (0.47-1.14)
[10]
  EFS HR (95% CI): 0.9 (0.63-1.28)
  MRD1 OR (95% CI): 1.09 (0.67-1.78)
  OS HR (95% CI): 1.44 (0.7-2.98)
[11]
  EFS HR (95% CI): 1.14 (0.78-1.66)
  MRD1 OR (95% CI): 1.04 (0.61-1.77)
  OS HR (95% CI): 1.42 (0.93-2.17)
[12]
  EFS HR (95% CI): 1.18 (0.7-1.99)
  MRD1 OR (95% CI): 0.73 (0.34-1.56)
  OS HR (95% CI): 0.89 (0.46-1.75)
[13]
  EFS HR (95% CI): 0.94 (0.63-1.39)
  MRD1 OR (95% CI): 1.39 (0.84-2.31)
  OS HR (95% CI): 0.87 (0.54-1.4)
[14]
  EFS HR (95% CI): 1.41 (0.8-2.51)
  MRD1 OR (95% CI): 1.16 (0.48-2.81)
  OS HR (95% CI): 1.48 (0.75-2.94)
[15]
  EFS HR (95% CI): 1.65 (1.15-2.36)
  MRD1 OR (95% CI): 1.89 (1.15-3.11)
  OS HR (95% CI): 1.43 (0.94-2.18)
[16]
  EFS HR (95% CI): 0.71 (0.47-1.09)
  MRD1 OR (95% CI): 0.82 (0.49-1.37)
  OS HR (95% CI): 0.51 (0.27-0.93)
[17]
  EFS HR (95% CI): 0.81 (0.56-1.18)
  MRD1 OR (95% CI): 1.41 (0.79-2.53)
  OS HR (95% CI): 0.76 (0.49-1.18)
[18]
  EFS HR (95% CI): 1.69 (1.08-2.64)
  MRD1 OR (95% CI): 1.91 (1.08-3.37)
  OS HR (95% CI): 1.72 (1-2.95)
[19]
  EFS HR (95% CI): 0.52 (0.29-0.95)
  MRD1 OR (95% CI): 0.66 (0.35-1.23)
  OS HR (95% CI): 0.54 (0.26-1.11)
[20]
  EFS HR (95% CI): 1.15 (0.63-2.09)
  MRD1 OR (95% CI): 0.87 (0.36-2.12)
  OS HR (95% CI): 1.38 (0.75-2.56)
